# Measured values taken from US20200281965A1, “[…] NITRIC OXIDE” (Beyond Air, Inc., priority 2017, published 2020).
# Assays:
# [1] = system: human influenza (influenza A/victoria H3N2) and highly pathogenic avian influenza (H7N2); type: cell-based, influenza virus
# [2] = safety monitoring of human subjects undergoing intermittent gNO inhalation; type: in vivo
# Excerpt: In some embodiments, the methods disclosed herein are effected while monitoring various parameters relevant for maintaining the desired dosage and regimen, relevant to the safety of the procedure and relevant for efficacy of the treatment. Exemplary such parameters are those obtainable on-site in real-time, such as methemoglobin level, end-tidal CO2 level, and oxygenation, and parameters which are obtainable off-site in the laboratory, such as blood nitrite level, urine nitrite level, and inflammatory markers' level. […] Embodiments of the present invention therefore relate to methods of administering gaseous nitric oxide to human subjects in need thereof, while these parameters remain substantially unchanged.
# As methemoglobin levels can be measured using noninvasive measures, the parameter of percent saturation at the periphery of methemoglobin (SpMet) is used to monitor the stability, safety and effectiveness of the method presented herein.
# [3] = system: human respiratory syncytial virus (rgRSV30); type: cell-based
# [4] = human subjects undergoing the disclosed regimen
compound,measurement,setting,value
"[N]=O [gNO, nitric oxide]",infectivity of influenza,[1],reduced their infectivity
same,change in inflammatory markers,[2]; [4],no substantial change
same,change in methemoglobin level,[2]; [4],no substantial change
same,change in serum nitrite level,[2]; [4],no substantial change
same,SpMet level (percent saturation at the periphery of methemoglobin),"[2]; human subjects undergoing the method, during and following administration",≤ 1%
same,infectivity of RSV,[3],reduced their infectivity
